Read-outs that look alike come from different tables or passages of the source.
Assays:
[1] = test system: HCV 2a; assay: HCV 2a replicon assay; type: cell-based; conditions: Hepatitis C virus; class symbol; cell marked (HCV genotype 2a replicon); read-out: Inhibition of HCV genotype 2a replicon
Experimental: (§1) Compounds of the invention can inhibit multiple genotypes of HCV selected but not limited to 1a, 1h, 2a, 3a, and 4a. The EC50s are measured in the corresponding replicon assays that are similar to HCV 1b replicon assay as described above.
(§2) The biological activity against HCV 1b, 1a, or 2a is indicated as being *, **, ***, or ****, which corresponds to EC50 ranges of EC50>1000 nM, 100 nM<EC50≦1000 nM, 10 nM<EC50≦100 nM, or EC50≦10 nM, respectively. The biological activity against HCV NS5B C316Y or S365A mutant is indicated as being […], which corresponds to EC50 ranges of EC50>1000 nM, 200 nM<EC50≦1000 nM, […], respectively.

[2] = test system: 1b_Huh-Luc/Neo-ET cell line (bicistronic genotype 1b replicon in Huh 7 cells); assay: HCV 1b replicon assay, luciferase readout; type: cell-based, HCV genotype 1b; conditions: Hepatitis C virus
Outline: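 Huh 7 cells persistently carrying a bicistronic genotype 1b luciferase replicon, treated with compound in triplicate the day after plating and incubated 72 h. Luciferase activity measured by Bright-Glo and expressed as percent of untreated control; EC50 from four-parameter fit, repeated several times.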

[3] = molecular target: T1, HCV NS5B C316Y mutant (Hepatitis C virus genotype 1b, UniProt Q9WMX2, C2735Y); assay: Activity against HCV NS5B C316Y mutant; type: cell-based; conditions: class symbol; C316Y mutant
T1 construct: HCV NS5B C316Y or S365A mutant as indicated; expressed in transfected cells
T1 sequence (Q9WMX2 2420-3010 C2735Y): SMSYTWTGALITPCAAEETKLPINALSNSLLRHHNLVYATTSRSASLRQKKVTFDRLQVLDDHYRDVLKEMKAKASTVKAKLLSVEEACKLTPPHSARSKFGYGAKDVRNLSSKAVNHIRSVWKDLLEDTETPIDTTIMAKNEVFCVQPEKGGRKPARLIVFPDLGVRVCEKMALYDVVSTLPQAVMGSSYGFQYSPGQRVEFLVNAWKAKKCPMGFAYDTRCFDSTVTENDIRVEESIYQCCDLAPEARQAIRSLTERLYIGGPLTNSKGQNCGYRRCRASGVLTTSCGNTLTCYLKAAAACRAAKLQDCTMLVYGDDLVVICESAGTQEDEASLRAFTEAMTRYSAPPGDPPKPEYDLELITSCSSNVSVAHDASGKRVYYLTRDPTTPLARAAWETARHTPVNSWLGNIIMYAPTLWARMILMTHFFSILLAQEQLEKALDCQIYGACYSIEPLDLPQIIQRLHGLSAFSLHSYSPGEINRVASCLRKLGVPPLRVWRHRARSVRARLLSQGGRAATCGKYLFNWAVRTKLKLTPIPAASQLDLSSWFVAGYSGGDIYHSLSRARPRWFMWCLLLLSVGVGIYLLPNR
Experimental: as §2

[4] = molecular target: T2, HCV NS5B S365A mutant (Hepatitis C virus genotype 1b, UniProt Q9WMX2, S2784A); assay: Activity against HCV NS5B S365A mutant; type: cell-based; conditions: for Inhibition of HCV NS5B S3865A mutant: class symbol
T2 construct: HCV NS5B C316Y or S365A mutant as indicated; expressed in transfected cells
T2 sequence (Q9WMX2 2420-3010 S2784A): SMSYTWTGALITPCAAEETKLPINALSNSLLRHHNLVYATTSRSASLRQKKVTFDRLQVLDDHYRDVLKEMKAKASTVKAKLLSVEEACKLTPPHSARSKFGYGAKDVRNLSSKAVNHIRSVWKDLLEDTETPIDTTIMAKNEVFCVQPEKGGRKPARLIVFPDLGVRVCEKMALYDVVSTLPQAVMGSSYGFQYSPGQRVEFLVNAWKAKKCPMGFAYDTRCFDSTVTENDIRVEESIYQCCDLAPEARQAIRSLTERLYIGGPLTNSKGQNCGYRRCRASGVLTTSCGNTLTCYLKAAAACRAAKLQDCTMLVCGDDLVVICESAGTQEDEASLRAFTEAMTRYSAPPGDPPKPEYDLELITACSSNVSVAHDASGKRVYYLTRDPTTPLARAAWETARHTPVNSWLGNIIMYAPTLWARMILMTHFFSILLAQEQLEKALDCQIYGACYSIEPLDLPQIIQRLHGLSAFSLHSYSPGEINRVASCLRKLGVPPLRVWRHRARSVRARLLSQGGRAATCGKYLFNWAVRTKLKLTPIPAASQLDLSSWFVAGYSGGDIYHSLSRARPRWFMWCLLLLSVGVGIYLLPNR
Experimental: as §2

[5] = test system: HCV 1a; assay: HCV 1a replicon assay; type: cell-based; conditions: Hepatitis C virus; class symbol; cell marked (HCV genotype 1a replicon); read-out: Inhibition of HCV genotype 1a replicon
Experimental: as §1, §2

[6] = Huh-7, 1b_Huh-Luc/Neo-ET cell line, read-out: EC50, half-maximal inhibition of HCV 1b replication
[7] = Huh-7, class symbol, HCV genotype 1b replicon, read-out: Inhibition of HCV genotype 1b replicon

SMILES	EC50 [1]	EC50 [2, 6]	Inhibition of HCV N55B C316Y mutant [3]	Inhibition of HCV NS5B S3865A mutant [4]	EC50 [2, 7]	other results
CNC(=O)c1c(-c2ccc(F)cc2)oc2cc3c(cc12)C(=O)C(C)CCN3S(C)(=O)=O (centres unmarked) [Compound B77]	100 to 1000 nM	–	–	–	–	–
CNC(=O)c1c(-c2ccc(F)cc2)oc2cc3c(cc12)C(O)C(C)CCN3S(C)(=O)=O (centres unmarked) [Compound B78]	100 to 1000 nM	–	–	–	–	–
CNC(=O)c1c(-c2ccc(F)cc2)oc2cc3c(cc12)C=C(C)CCN3S(C)(=O)=O [Compound B79]	> 1000 nM	–	–	–	–	–
CNC(=O)c1c(-c2ccc(Oc3cccc(Cl)c3)cc2)nn2cc3c(cc12)C(C)CCCN3S(C)(=O)=O (centres unmarked) [Compound B98]	100 to 1000 nM	–	–	–	–	–
CNC(=O)c1c(-c2ccc(Oc3ccc(Cl)cc3)cc2)nn2cc3c(cc12)C(C)CCCN3S(C)(=O)=O (centres unmarked) [Compound B99]	100 to 1000 nM	–	–	–	–	–
CNC(=O)c1c(-c2ccc(F)cc2)oc2cc3c(cc12)C(=O)C(C)(C)CCN3S(C)(=O)=O [Compound B100]	10 to 100 nM	10 to 100 nM	–	–	–	–
C=C1c2cc3c(C(=O)NC)c(-c4ccc(F)cc4)oc3cc2N(S(C)(=O)=O)CCC1(C)C [Compound B101]	10 to 100 nM	10 to 100 nM	–	–	–	–
CNC(=O)c1c(-c2ccc(Oc3ccc(F)cc3)cc2)oc2cc3c(cc12)[C@H](C)OCCN3S(C)(=O)=O [Compound B118]	–	≤ 10 nM	†††	†††	–	EC50 ([2]; Huh-7, numeric value, HCV genotype 1b replicon, read-out: Inhibition of HCV genotype 1b replicon (EC50)): 3.1 nM
CC1CCCN(S(C)(=O)=O)c2cc3oc(-c4ccc(F)cc4)c(-c4ncc[nH]4)c3cc21 (centres unmarked) [Compound B120]	–	≤ 10 nM	†††	†††	–	EC50 [5]: < 10 nM
CNC(=O)c1c(-c2ccc(F)cc2)oc2cc3c(cc12)C(C)N(CCO)CCN3S(C)(=O)=O (centres unmarked) [Compound B145]	–	≤ 10 nM	†††	–	< 10 nM	EC50 [4]: 200 to 1000 nM
CNC(=O)c1c(-c2ccc(F)cc2)oc2cc3c(cc12)C(C)N(CCS(C)(=O)=O)CCN3S(C)(=O)=O (centres unmarked) [Compound B156]	–	10 to 100 nM	†††	†††	10 to 100 nM	–
CC1c2cc3c(-c4ncc[nH]4)c(-c4ccc(F)cc4)oc3cc2N(S(C)(=O)=O)CCN1C (centres unmarked) [Compound B171]	–	≤ 10 nM	†††	–	< 10 nM	EC50 [4]: 200 to 1000 nM
CC1OCCN(S(C)(=O)=O)c2cc3oc(-c4ccc(F)cc4)c(-c4ncc[nH]4)c3cc21 (centres unmarked) [Compound B197]	–	≤ 10 nM	†††	–	< 10 nM	EC50 [4]: 200 to 1000 nM
CNC(=O)c1c(-c2ccc(Oc3ccc(F)cc3)cc2)oc2cc3c(cc12)[C@H](C)O[C@H](CS(C)(=O)=O)CN3S(C)(=O)=O [Compound B207]	–	–	†††	†††	< 10 nM	–
CNC(=O)c1c(-c2ccc(F)cc2)oc2cc3c(cc12)[C@H](C)O[C@H](CO)CN3S(C)(=O)=O [Compound B212]	–	≤ 10 nM	†††	†††	< 10 nM	–
CNC(=O)c1c(-c2ccc(F)cc2)oc2cc3c(cc12)[C@H](C)O[C@H](CS(C)(=O)=O)CN3S(C)(=O)=O [Compound B214]	–	–	†††	†††	< 10 nM	–
CNC(=O)c1c(-c2ccc(Oc3ccc(F)cc3)cc2)oc2cc3c(cc12)[C@H](C)O[C@H](CO)CN3S(C)(=O)=O [Compound B232]	–	≤ 10 nM	†††	†††	< 10 nM	–

— US20130302282A1, “Inhibitors of Hepatitis C Virus” (priority 2010, published 2013)
